SMILES strings stand for the structures. Read-outs that look alike come from different tables or passages of the source.

The values below come from patent publication US20030190603A1, “Method and system for predicting therapeutic agent resistance and for defining the genetic basis of drug resistance using neural networks” (priority 2003, published 2003).

Test [1] deals with HIV-1. The settings on record: drug - cut-off, Larder & Harrigan AIDS 2000; cited from earlier work.
The test system of test [2] is HIV-1. Particulars: cited from earlier work.
Test [3] concerns patient's recombinant virus (HIV-1). Description: Phenotypic susceptibility, MT-4 cell viral cytopathic effect protection assay (fold resistance vs wild-type control virus). In kind it is cell-based. As for the experimental part:
Phenotypic susceptibility was determined using a MT-4 cell viral cytopathic effect protection assay. See, e.g., Kashiwase et al., Chemotherapy 45(1):48-55 (1999), expressly incorporated herein by reference; Larder et al., Antimicrob. Agents Chemother. 43(8): 1961-1967 (1999). […] The procedure is also described in WO 97/27480.

[4] abbreviates: HIV-1 mutation 333D/E in addition to M184V.

With `O=C1Nc2ccc(Cl)cc2[C@@](C#CC2CC2)(C(F)(F)F)O1` [DMP266], in the test with HIV-1 [1], the “Biological cut-off (fold resistance)” value is 6.0.

For the molecule `CC(C)(C)NC(=O)[C@@H]1C[C@@H]2CCCC[C@@H]2CN1C[C@@H](O)[C@H](Cc1ccccc1)NC(=O)[C@H](CC(N)=O)NC(=O)c1ccc2ccccc2n1` [Saquinavir], in the test with HIV-1 [1], the “Biological cut-off (fold resistance)” value is 2.5.

In the case of `Cc1cn([C@H]2C[C@H](N=[N+]=[N-])[C@@H](CO)O2)c(=O)[nH]c1=O` [AZT, 3′-azido-3′-deoxythymidine], the “Biological cut-off (fold resistance)” value with HIV-1 [1] is 4.0. Besides, the figures for the “Effect of mutation on resistance” value with HIV-1 [2] (setting [4]) and in the test with HIV-1 [2] (HIV-1 mutation M184V) were “dual AZT/3TC resistance” and “reverses AZT resistance”, respectively.

`OC[C@@H]1CC[C@H](n2cnc3c(O)ncnc32)O1` [DDI, 2′,3′-dideoxyinosine]: the “Biological cut-off (fold resistance)” value in the test on HIV-1 [1] was 2.0.

On to `CC(C)(C)NC(=O)[C@@H]1CN(Cc2cccnc2)CCN1C[C@@H](O)C[C@@H](Cc1ccccc1)C(=O)N[C@H]1c2ccccc2C[C@H]1O` [Indinavir], for which the “Biological cut-off (fold resistance)” value in the test on HIV-1 [1] is on record as 3.0.

For the molecule `Cc1c(O)cccc1C(=O)N[C@@H](CSc1ccccc1)[C@H](O)CN1C[C@H]2CCCC[C@H]2C[C@H]1C(=O)NC(C)(C)C` [Nelfinavir], in the test on HIV-1 [1], the “Biological cut-off (fold resistance)” value is 4.0.

As for `CC(C)c1nc(CN(C)C(=O)N[C@H](C(=O)N[C@@H](Cc2ccccc2)C[C@H](O)[C@H](Cc2ccccc2)NC(=O)OCc2cncs2)C(C)C)cs1` [Ritonavir], in the test on HIV-1 [1], the “Biological cut-off (fold resistance)” value is given as 3.5.

Take `Cc1ccnc2c1NC(=O)c1cccnc1N2C1CC1` [Nevirapine]: in the test with HIV-1 [1], the “Biological cut-off (fold resistance)” value is reported as 8.0.

For the molecule `Nc1nc(NC2CC2)c2ncn([C@H]3C=C[C@@H](CO)C3)c2n1` [1592 U89], the “Biological cut-off (fold resistance)” value in the test with HIV-1 [1] is 3.0. Also, the “Drug resistance level (from the phenotypic data)” value (shortened to “Drug resistance level”) in test [3] (test sample 1) is “S/S (A fold resistance of less than or equal to 4 is considered to be)”; in test [3] (test sample 2), “S (A fold resistance of less than or equal to 4 is considered to be)”; in test [3] (test sample 3) it was “S/S (A fold resistance of less than or equal to 4 is considered to be)”; in test [3] (test sample 4) it was “S/S (A fold resistance of less than or equal to 4 is considered to be)”; in test [3] (test sample 5), “S/S (A fold resistance of less than or equal to 4 is considered to be)”; in test [3] (test sample 6) it was “I (greater than 4 and less than 10 is considered to be)”. For the same molecule, the “Drug resistance level” value in test [3] (test sample 7) was “S/S (A fold resistance of less than or equal to 4 is considered to be)”; in test [3] (test sample 8), “I (greater than 4 and less than 10 is considered to be)”; in test [3] (test sample 9) it was “S/S (A fold resistance of less than or equal to 4 is considered to be)”; in test [3] (test sample 10) it was “S/S (A fold resistance of less than or equal to 4 is considered to be)”.

Take `Nc1ccn([C@@H]2CS[C@H](CO)O2)c(=O)n1` [3TC]: the “Biological cut-off (fold resistance)” value in the test on HIV-1 [1] is reported as 4.5. In addition, the “Effect of mutation on resistance” value is reported as “dual AZT/3TC resistance” in the test with HIV-1 [2] (setting [4]) and “confers resistance” in the test with HIV-1 [2] (HIV-1 mutation M184V). For the same molecule, the “Drug resistance level” value is listed as “S/S (A fold resistance of less than or equal to 4 is considered to be)” in test [3] (test sample 1); “R/R (if the value is greater than 10, it is considered to be)” in test [3] (test sample 2); “R/R (if the value is greater than 10, it is considered to be)” in test [3] (test sample 3); “S/S (A fold resistance of less than or equal to 4 is considered to be)” in test [3] (test sample 4); “R/R (if the value is greater than 10, it is considered to be)” in test [3] (test sample 5); “R (if the value is greater than 10, it is considered to be)” in test [3] (test sample 6). For the same molecule, the “Drug resistance level” value is “R/R (if the value is greater than 10, it is considered to be)” in test [3] (test sample 7); “R/R (if the value is greater than 10, it is considered to be)” in test [3] (test sample 8); “R/R (if the value is greater than 10, it is considered to be)” in test [3] (test sample 9); “S/S (A fold resistance of less than or equal to 4 is considered to be)” in test [3] (test sample 10).

In the case of `Cc1cccc(C)c1OCC(=O)N[C@@H](Cc1ccccc1)[C@@H](O)C[C@H](Cc1ccccc1)NC(=O)[C@H](C(C)C)N1CCCNC1=O` [Lopinavir], the “Biological cut-off (fold resistance)” value in the test on HIV-1 [1] is recorded as 2.5.

Take `Nc1ccn([C@H]2CC[C@@H](CO)O2)c(=O)n1` [DDC]: in the test on HIV-1 [1], the “Biological cut-off (fold resistance)” value is 2.0.

With `CC(C)Nc1cccnc1N1CCN(C(=O)c2cc3cc(NS(C)(=O)=O)ccc3[nH]2)CC1` [Delavirdine], the “Biological cut-off (fold resistance)” value in the test with HIV-1 [1] is 10.0.

For `Cc1cn([C@H]2C=C[C@@H](CO)O2)c(=O)[nH]c1=O` [D4T], the “Biological cut-off (fold resistance)” value in the test with HIV-1 [1] is 1.75. Moreover, the “Mean fold change of IC50” value in test [3] (92 of 188 test samples with d4T IC50<3-fold) amounted to 1.1 fold; in test [3] (96 of 188 test samples with d4T IC50>3-fold) it was 7.7 fold; in test [3] (1040 of 2286 samples with d4T IC50<3-fold), 1.2 fold; in test [3] (1246 of 2286 samples with d4T IC50>3-fold), 9.0 fold.

Take `CC(C)CN(C[C@@H](O)[C@H](Cc1ccccc1)NC(=O)O[C@H]1CCOC1)S(=O)(=O)c1ccc(N)cc1` [VX-478]: the “Biological cut-off (fold resistance)” value in the test with HIV-1 [1] is 2.0. Besides, in the test on HIV-1 [2] (HIV-1 mutation N88S), the “Effect of mutation on susceptibility in vitro” value is recorded as “hypersensitivity”.
